The text below walks through data of US11420922B2, “Hydroxylated tropolone inhibitors of nucleotidyl transferases in herpesvirus and Hepatitis B and uses therefor” (Saint Louis University, priority 2015, dated 2022).

The test system of series [1] is HSV-2. As to the kind of experiment: Anti-HSV-2 replication assay in Vero cells, titers by plaque assay. The series is classed as cell-based, herpes simplex virus 2.
Series [2] deals with TK-deficient mutant of HSV-2 strain 333, ΔTK-. The series can be described thus: Replication of acyclovir-resistant TK-deficient HSV-2 mutant in Vero cells. The series is classed as cell-based, herpes simplex virus 2. As to conditions: 5 μM, 24 hr, FIG. 4. As for the experimental part: FIGS. 4A & 4B. Sensitivity of thymidine kinase-deficient HSV-2 to αHT compounds. […] Duplicate cultures were collected 24 hours post-infection and infectious virus titers were determined by plaque assay. Titers in compound-treated samples were subtracted from DMSO-treated samples. Values are the averages±one standard error of the mean. α-Hydroxytropolones inhibit an ACV-resistant mutant of HSV-2. […] Log10 suppression was determined relative to the diluent control. Data are the averages of data from duplicate samples±ranges from one of two independent experiments at each concentration.
Vero cells were maintained in Dulbecco's modified Eagle's medium (DMEM) containing 3% newborn calf serum, 3% bovine growth serum, 2 mM L-glutamine and 100 IU/mL penicillin and 0.1 mg/mL streptomycin (P/S). HSV-1 #6 and HSV-2 #1 are de-identified clinical isolates from the Saint Louis University Hospital. Stocks were prepared after a single passage in cell culture and were titered by standard plaque assay (Knipe and Spang, 1982). Wild-type HSV-2 used in FIG. 3 was laboratory strain 333. The TK-deficient mutant of HSV-2 strain 333, ΔTK-, contains a 180-bp KpnI-KpnI deletion in the UL23 open reading frame that abrogates TK activity (McDermott, et al, 1984). ΔTK- was the generous gift of Jim Smiley. Virus stocks were grown and titered on Vero cells (Morrison and Knipe, 1996).
HSV TK-deficient mutants are therefore insensitive to ACV. […] Vero cells were infected with a laboratory strain of HSV-2 and an engineered TK-deficient mutant of the same strain.

Series [3] is described as follows: Quantitative Vero cell toxicity (MTT). It counts as cell-based. As to conditions: African green monkey, Vero cells. As for the experimental part:
Qualitative assessments of cytotoxicity were done visually by inspecting the cells in the primary screening assays. For the quantitative assays, cells were plated in 96-well plates at 1.0×10^4 per well. The next day the compounds were added at 0.78 to 100 μM in a final concentration of 1% (v/v) DMSO, and the cells were incubated for 24 hours under conditions identical to those employed for the viral replication inhibition assays. Mitochondrial toxicity was measured by incubating the cells with 0.25 mg/mL thiazolyl blue tetrazolium bromide (MTT, Sigma Aldrich Chemical Co.), the cultures were incubated for 60 min, metabolites were solubilized in acidic isopropanol, and absorbance was read at 570 nm. CC50 values were calculated by non-linear curve fitting using GraphPad Prism.
Quantitative toxicity measurements were conducted for all compounds that suppressed HSV replication by >2 log10 at 5 μM plus a number of compounds with lesser inhibitory activity for comparison. Toxicity was assessed by […]. Cells were plated in 96-well plates at 1.0×10^4 per well. The next day compound was added in concentrations ranging from 0.78 to 100 μM in a final concentration of 1% (v/v) DMSO. The cells were incubated for 24 h under conditions identical to those employed for the viral replication inhibition assays, and then mitochondrial activity was measured with the MTT assay (Sigma Aldrich) according to the manufacturer's instructions. Percent viability was determined for each compound concentration from the […], and then 50% cytotoxic concentrations (CC50) values were calculated by non-linear curve fitting using GraphPad Prism. Consistent with the subjective assessments of toxicity, all compounds selected for quantitative toxicity assessment had CC50 values≥50 μM under these conditions (Table 1).

A short description of series [4]: Mouse liver microsome assay. The series is classed as in vitro ADME. As to conditions: 1 μM in mouse liver microsomes. In short, it runs like this: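 Mouse liver microsomes at 0.25 μM P450 final in 0.1 M potassium phosphate with 3.3 mM MgCl and 1 μM compound, prewarmed 5 min at 37 °C. Reaction started with NADPH (1.2 mM final); aliquots at 0, 5, 10, 20 and 30 min quenched in cold acetonitrile with EDTA or EGTA, analysed by LC/MS/MS.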

The subject of series [5] is HBV. The series can be described thus: HBV replication assay in HepDES19 cells. As to conditions: Hepatitis B virus; HepDES19 cells; read-out: EC50 (HBV assay). It counts as cell-based. In short, it runs like this: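 HepDES19 cells induced by tetracycline withdrawal, then compound applied 48 h later in duplicate (1% DMSO final) and refreshed daily for two more days. After micrococcal nuclease digestion, capsid-associated HBV DNA purified and plus- and minus-strand DNA quantified by TaqMan PCR.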

For the compound `Cc1cc(O)c(=O)c(O)cc1C(=O)c1ccc(-c2ccccc2)cc1` [Compound 118], the “inhibition of wild-type HSV-2, in words” value in series [1] (5 μM, laboratory strain, 24 hr, FIG. 4) is reported as “efficiently inhibited”. The EC50 was 0.08 µM in series [1] (Human alphaherpesvirus 2, Vero, 24 h, read-out: HSV-2 EC50) and 6 µM in series [5]. In addition, the log reduction at 5 µM in series [1] (Human alphaherpesvirus 2, Vero, 24 h, read-out: HSV-2 Log suppression 5 μM) was 3.22. Further, the log reduction at 50 µM in series [1] (Human alphaherpesvirus 2, Vero, 24 h, read-out: HSV-2 Log suppression 50 μM) was 5.56. Besides, the “inhibition of the TK-mutant strain, in words” value in series [2] is recorded as “efficiently inhibited”. In series [3], this compound came in with a cytotoxic concentration (CC50) at 24 h of more than 100 µM. Moreover, the Non-P450 turn-over entry in series [4] was “Potential”. Further, the half-life at 1 μM in series [4] (read-out: t ½) is 34 min. For the same compound, the ER in series [4] (extraction ratio) came to 0.63. The compound further yielded a CLint scaled at 1 μM in series [4] (mouse, liver microsomes) of 154 mL/min/kg. Moreover, in series [4] (mouse, liver microsomes, read-out: CL ′hep), the predicted hepatic clearance at 1 μM is 57 mL/min/kg.
